# System: HCC-PDX-1
# Assay: PET imaging in HCC-PDX-1 model
# Format: in vivo, mouse
# Experimental: The PET imaging and biodistribution studies were conducted in HCC-PDX1 and HCC-PDX2 mouse models. The histological verification was first conducted, where the immunohistochemical staining and H&E staining were conducted for FAP and Ki67, a tumor tissue was digested for protein extraction, and the expression of FAP was detected by Western Blot. Verification results were shown in FIG. 6A-B, where the immunohistochemical staining result was shown in FIG. 6A and the Western Blot result was shown in FIG. 6B. […] Therefore, the models can be used for further mouse experiments.
# The products of ^68Ga-2PEG(3)-FAPI-dimer and ^68Ga-FAPI-46 were each diluted to a concentration of 74 MBq/mL. 7.4 MBq of ^68Ga-2PEG(3)-FAPI-dimer or 7.4 MBq of ^68Ga-FAPI-46 was injected into the HCC-PDX model through the tail vein (3 parallel experiments per group). All PET scans were conducted with an Inveon small animal PET scanner (Siemens Preclinical Solution, USA). The dynamic PET imaging was conducted with a scan duration of 60 min and reconstructed frames of 10×30 s, 10×60 s, 10×120 s, and 9×160 s. The 10 min static PET imaging was conducted with acquisition time points of 0.5 h, 1 h, 2 h, and 4 h after injection. For the blocking experiment, 30 nmol of unlabeled FAPI-46 was added to a ^68Ga-2PEG(3)-FAPI-dimer solution (with NS as a solvent) before injection. An image was iteratively reconstructed with 3D OPMAP 256.pPetRcn (Siemens) and converted into a % ID/g image. Region of interests (ROIs) in the tumor, liver, heart, kidney, and muscle were calculated on PET images to quantify radioactive signals.
structure (smiles),measurement,setting,value
CN(CCCN1CCN(C(=O)COCCOCCOCCNC(=O)CCC(=O)N[C@@H](CCCCNC(=O)CN2CCN(CC(=O)[O-])CCN(CC(=O)[O-])CCN(CC(=O)[O-])CC2)C(=O)NCCOCCOCCOCC(=O)N2CCN(CCCN(C)c3ccc4nccc(C(=O)NCC(=O)N5CC(F)(F)C[C@H]5C#N)c4c3)CC2)CC1)c1ccc2nccc(C(=O)NCC(=O)N3CC(F)(F)C[C@H]3C#N)c2c1.[68Ga+3] [^68Ga-2PEG(3)-FAPI-dimer],uptake in normal organs,"HCC-PDX-1, 7.4 MBq via tail vein, PET",low and decline rapidly
same,uptake and residence in tumor tissue compared with ^68Ga-FAPI-46,"HCC-PDX-1, 7.4 MBq via tail vein, PET 0.5 h, 1 h, 2 h, 4 h",better than
same,blocking of tumor uptake by unlabeled FAPI-46,"two liver cancer PDX models (HCC-PDX-1 and HCC-PDX-2), 30 nmol unlabeled FAPI-46",can be blocked by unlabeled FAPI-46
